According to ChEMBL document CHEMBL1909046, “DrugMatrix in vitro pharmacology data”:

Key:
[1] = biological target: T1, Alpha-1B adrenergic receptor (Rattus norvegicus, UniProt P15823); test: DRUGMATRIX: Alpha-1B adrenergic receptor radioligand binding (ligand: prazosin); assay type: cell membranes, Wistar, Liver, Membrane; details: Not Active = under 50% inhibition at 10 µM
T1 sequence (P15823 whole entry): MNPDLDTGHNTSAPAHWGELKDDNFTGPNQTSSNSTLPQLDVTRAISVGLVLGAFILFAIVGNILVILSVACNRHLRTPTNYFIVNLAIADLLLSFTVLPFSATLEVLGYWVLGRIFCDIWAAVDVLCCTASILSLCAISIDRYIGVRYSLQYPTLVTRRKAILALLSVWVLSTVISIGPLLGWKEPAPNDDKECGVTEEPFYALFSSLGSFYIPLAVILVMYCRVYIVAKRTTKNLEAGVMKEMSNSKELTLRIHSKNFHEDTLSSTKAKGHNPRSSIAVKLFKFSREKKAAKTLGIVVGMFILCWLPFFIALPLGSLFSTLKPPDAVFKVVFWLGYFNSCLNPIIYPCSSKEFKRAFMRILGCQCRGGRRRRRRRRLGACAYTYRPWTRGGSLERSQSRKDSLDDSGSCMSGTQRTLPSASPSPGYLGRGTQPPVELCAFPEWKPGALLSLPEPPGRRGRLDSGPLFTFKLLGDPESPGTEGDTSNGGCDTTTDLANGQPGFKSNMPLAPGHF

[2] = DRUGMATRIX: Leukotriene, BLT (LTB4) radioligand binding (ligand: [3H]LTB4); assay type: cell membranes, Membrane; details: u-937; Not Active = under 50% inhibition at 10 µM
[3] = DRUGMATRIX: Sodium/nucleoside co-transporter radioligand binding (ligand: nitrobenzylthioinosine); assay type: cell membranes, Cavia porcellus, Dunkin-Hartley, Cerebral cortex, Membrane; details: Not Active = under 50% inhibition at 10 µM
[4] = biological target: T2, Alpha-2A adrenergic receptor (Homo sapiens, UniProt P08913); assay type: cell membranes, Sf9, Membrane; details: sf9; also: in other assays of this panel Not Active means under 50% inhibition at 10 µM
T2 sequence (P08913 whole entry): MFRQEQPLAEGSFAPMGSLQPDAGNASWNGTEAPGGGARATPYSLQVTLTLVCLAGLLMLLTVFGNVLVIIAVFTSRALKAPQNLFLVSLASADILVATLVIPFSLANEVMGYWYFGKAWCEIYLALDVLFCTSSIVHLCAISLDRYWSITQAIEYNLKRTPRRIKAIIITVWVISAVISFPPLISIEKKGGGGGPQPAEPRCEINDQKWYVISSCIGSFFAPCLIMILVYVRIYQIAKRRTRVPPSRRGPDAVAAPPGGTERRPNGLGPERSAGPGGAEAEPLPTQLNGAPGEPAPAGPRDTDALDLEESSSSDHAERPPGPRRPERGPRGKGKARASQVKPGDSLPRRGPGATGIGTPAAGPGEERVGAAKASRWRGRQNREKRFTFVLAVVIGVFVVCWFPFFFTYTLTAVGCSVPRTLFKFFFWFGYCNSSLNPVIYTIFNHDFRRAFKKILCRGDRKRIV

[5] = biological target: Sigma non-opioid intracellular receptor 1 (Homo sapiens, UniProt Q99720); test: DRUGMATRIX: Sigma1 radioligand binding (ligand: [3H] Haloperidol); assay type: cell membranes, Jurkat, Membrane; details: Not Active = under 50% inhibition at 10 µM; for Ki: read-out: Ki
Cathepsin G = biological target: T3, Cathepsin G (Homo sapiens, UniProt P08311); assay type: tissue-based; details: neutrophil;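 also: inhibition of Cathepsin G enzyme activity, tested on an AMC-conjugated peptide substrate; in other assays of this panel Not Active means under 50% inhibition at 10 µM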
T3 sequence (P08311 whole entry): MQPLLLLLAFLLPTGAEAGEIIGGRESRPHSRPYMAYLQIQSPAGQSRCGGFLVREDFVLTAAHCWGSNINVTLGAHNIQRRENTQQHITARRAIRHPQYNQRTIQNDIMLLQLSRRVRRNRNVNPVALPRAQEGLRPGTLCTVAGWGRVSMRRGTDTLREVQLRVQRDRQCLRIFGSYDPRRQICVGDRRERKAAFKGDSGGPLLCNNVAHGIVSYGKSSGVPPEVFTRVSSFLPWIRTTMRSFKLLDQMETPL

Sequence of Sigma non-opioid intracellular receptor 1 (Q99720 whole entry): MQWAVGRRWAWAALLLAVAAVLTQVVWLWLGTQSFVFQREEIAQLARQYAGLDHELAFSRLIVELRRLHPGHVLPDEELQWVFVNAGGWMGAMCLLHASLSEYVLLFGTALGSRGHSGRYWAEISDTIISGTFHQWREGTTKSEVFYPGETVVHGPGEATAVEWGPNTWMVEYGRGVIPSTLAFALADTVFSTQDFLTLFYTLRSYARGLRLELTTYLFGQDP

Structure (SMILES) | IC50 [1] | IC50 [2] | Ki [2] | IC50 [3] | Ki [3] | IC50 [4] | IC50 ([5]; jurkat) | IC50 (Cathepsin G) | IC50 ([5]; read-out: IC50) [nM] | Ki [5] [nM] | IC50 ([1]; read-out: IC50) [nM] | Ki ([1]; read-out: Ki) [nM]
O=C(c1ccccc1C(F)(F)F)N1CCC(Cc2ccccc2)CC1 | Not Active | Not Active | Not Active | Not Active | Not Active | Not Active | Not Active | Not Active |  |  |  | 
O=C/C=C/c1ccccc1 | Not Active | Not Active | Not Active | Not Active | Not Active | Not Active | Not Active | Not Active |  |  |  | 
Nc1ccc2c3c(cccc13)C(=O)NC2=O | Not Active | Not Active | Not Active | Not Active | Not Active | Not Active | Not Active | Not Active |  |  |  | 
COc1ccc(C(=O)N2CCCC2=O)cc1 | Not Active | Not Active | Not Active | Not Active | Not Active | Not Active | Not Active | Not Active |  |  |  | 
O=c1cnn([C@@H]2O[C@H](CO)[C@@H](O)[C@H]2O)c(=O)[nH]1 [6-AZAURIDINE] | Not Active | Not Active | Not Active | Not Active | Not Active | Not Active | Not Active | Not Active |  |  |  | 
CC[C@H](C)[C@H]1O[C@]2(C=C[C@@H]1C)C[C@@H]1C[C@@H](C/C=C(\C)[C@@H](O[C@H]3C[C@H](OC)[C@@H](O[C@H]4C[C@H](OC)[C@@H](O)[C@H](C)O4)[C@H](C)O3)[C@@H](C)/C=C/C=C3\CO[C@@H]4[C@H](O)C(C)=C[C@@H](C(=O)O1)[C@]34O)O2.CO[C@H]1C[C@H](O[C@H]2[C@H](C)O[C@@H](O[C@@H]3/C(C)=C/C[C@@H]4C[C@@H](C[C@]5(C=C[C@H](C)[C@@H](C(C)C)O5)O4)OC(=O)[C@@H]4C=C(C)[C@@H](O)[C@H]5OC/C(=C\C=C\[C@@H]3C)[C@]54O)C[C@@H]2OC)O[C@@H](C)[C@@H]1O [ABAMECTIN] | Not Active | Not Active | Not Active | Not Active | Not Active | Not Active | Not Active | Not Active |  |  |  | 
NCCCC(O)(P(=O)(O)O)P(=O)(O)O [ALENDRONIC ACID] | Not Active | Not Active | Not Active | Not Active | Not Active | Not Active | Not Active | Not Active |  |  |  | 
Cc1nnc2n1-c1ccc(Cl)cc1C(c1ccccc1)=NC2 [ALPRAZOLAM] | Not Active | Not Active | Not Active | Not Active | Not Active | Not Active | Not Active | Not Active |  |  |  | 
Cn1c(=O)c2[nH]cnc2n(C)c1=O.Cn1c(=O)c2[nH]cnc2n(C)c1=O.NCCN [AMINOPHYLLINE] | Not Active | Not Active | Not Active | Not Active | Not Active | Not Active | Not Active | Not Active |  |  |  | 
CCC1(CCC(C)C)C(=O)NC(=O)NC1=O [AMOBARBITAL] | Not Active | Not Active | Not Active | Not Active | Not Active | Not Active | Not Active | Not Active |  |  |  | 
CC1(C)S[C@@H]2[C@H](NC(=O)[C@H](N)c3ccccc3)C(=O)N2[C@H]1C(=O)O [AMPICILLIN] | Not Active | Not Active | Not Active | Not Active | Not Active | Not Active | Not Active | Not Active |  |  |  | 
COc1ccc(C2C(=O)c3ccccc3C2=O)cc1 [ANISINDIONE] | Not Active | Not Active | Not Active | Not Active | Not Active | Not Active | Not Active | Not Active |  |  |  | 
O=C1O[C@H]([C@@H](O)CO)C(O)=C1O [ASCORBIC ACID] | Not Active | Not Active | Not Active | Not Active | Not Active | Not Active | Not Active | Not Active |  |  |  | 
CN1[C@@H]2CC[C@H]1C[C@@H](OC(=O)C(CO)c1ccccc1)C2 (stereo partly specified) [ATROPINE] | Not Active | Not Active | Not Active | Not Active | Not Active | Not Active | Not Active | Not Active |  |  |  | 
CC(C(=O)O)c1ccc2oc(-c3ccc(Cl)cc3)nc2c1 (stereo unspecified) [BENOXAPROFEN] | Not Active | Not Active | Not Active | Not Active | Not Active | Not Active | Not Active | Not Active |  |  |  | 
COc1ccc2cc3[n+](cc2c1OC)CCc1cc2c(cc1-3)OCO2.[Cl-] [BERBERINE CHLORIDE] | Not Active | Not Active | Not Active | Not Active | Not Active | Not Active |  | Not Active | 1290 | 542 |  | 
O=C(O)CCNC(=O)c1ccccc1 [BETAMIPRON] | Not Active | Not Active | Not Active | Not Active | Not Active | Not Active | Not Active | Not Active |  |  |  | 
CC(=O)Oc1ccc(C(c2ccc(OC(C)=O)cc2)c2ccccn2)cc1 [BISACODYL] | Not Active | Not Active | Not Active | Not Active | Not Active | Not Active | Not Active | Not Active |  |  |  | 
Cc1cc2c(OCC(CNC(C)(C)C)OC(=O)c3ccccc3)cccc2[nH]1 (stereo unspecified) [BOPINDOLOL] | Not Active | Not Active | Not Active | Not Active | Not Active | Not Active | Not Active | Not Active |  |  |  | 
Brc1c(NC2=NCCN2)ccc2nccnc12 [BRIMONIDINE] | Not Active | Not Active | Not Active | Not Active | Not Active |  | Not Active | Not Active |  |  |  | 
CN(C)[C@@H]1C(O)=C(C(N)=O)C(=O)[C@@]2(O)C(O)=C3C(=O)c4c(O)ccc(Cl)c4[C@@](C)(O)[C@H]3C[C@@H]12 [CHLORTETRACYCLINE] | Not Active | Not Active | Not Active | Not Active | Not Active | Not Active | Not Active | Not Active |  |  |  | 
CN/C(=N\CCSCc1nc[nH]c1C)NC#N [CIMETIDINE] | Not Active | Not Active | Not Active | Not Active | Not Active | Not Active | Not Active | Not Active |  |  |  | 
COc1cc(N)c(Cl)cc1C(=O)NC1CCN(CCCOc2ccc(F)cc2)CC1OC (stereo unspecified) [CISAPRIDE] |  | Not Active | Not Active | Not Active | Not Active |  |  | Not Active | 994 | 418 | 16 | 8.65
N=C(N)NC(=O)Cc1c(Cl)cccc1Cl [GUANFACINE] | Not Active | Not Active | Not Active | Not Active | Not Active |  | Not Active | Not Active |  |  |  | 
COc1cc2nc(N3CCN(C(=O)c4ccco4)CC3)nc(N)c2cc1OC [PRAZOSIN] |  | Not Active | Not Active | Not Active | Not Active |  | Not Active | Not Active |  |  |  | 
CCCNCC(O)COc1ccccc1C(=O)CCc1ccccc1 (stereo unspecified) [PROPAFENONE] |  | Not Active | Not Active | Not Active | Not Active | Not Active |  | Not Active | 2610 | 1100 |  | 
